In brackets after ≈: the same amount, converted by molar mass. Activity calls are given as the source filed them. The calls are words filed in the database; no cut-off is given here.
Experiments:
[1] = Growth inhibition of human WI38 cells after 48 hrs by CCK8 assay; assay type: cell-based; details: WI-38, 48 h
[2] = target: T1, Calcium/calmodulin-dependent protein kinase type IV (Homo sapiens) (UniProt Q16566); assay: Inhibition of full length human N-terminal GST-tagged CAMK4 (1 to 473 residues) expressed in baculovirus expression system using fluorescence labelled GS peptide as substrate at 50 times IC50 by electrophoretic mobility shift assay relative to control
T1 sequence (whole entry): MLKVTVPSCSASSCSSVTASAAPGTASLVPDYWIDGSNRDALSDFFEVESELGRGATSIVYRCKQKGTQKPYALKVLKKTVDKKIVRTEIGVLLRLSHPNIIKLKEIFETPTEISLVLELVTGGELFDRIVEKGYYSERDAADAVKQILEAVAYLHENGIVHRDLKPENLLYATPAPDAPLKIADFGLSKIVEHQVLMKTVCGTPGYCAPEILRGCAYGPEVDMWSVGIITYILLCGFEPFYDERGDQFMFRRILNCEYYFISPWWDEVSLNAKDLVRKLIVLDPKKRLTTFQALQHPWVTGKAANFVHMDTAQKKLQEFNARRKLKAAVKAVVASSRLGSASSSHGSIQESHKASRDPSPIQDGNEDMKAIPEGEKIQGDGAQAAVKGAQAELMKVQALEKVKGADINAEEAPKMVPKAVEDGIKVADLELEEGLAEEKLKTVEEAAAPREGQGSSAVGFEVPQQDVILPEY

MV4-11 [3] = assay: Growth inhibition of human MV4-11 cells harboring FLT3-ITD after 48 hrs by CCK8 assay; assay type: functional, cell-based; details: MV4-11, 48 h
[4] = target: T2, Lymphokine-activated killer T-cell-originated protein kinase (Homo sapiens) (UniProt Q96KB5); assay: Inhibition of full length human N-terminal GST-tagged PBK (1 to 322 residues) expressed in baculovirus expression system using fluorescence labelled histone H3 peptide substrate at 50 times IC50 by electrophoretic mobility shift assay relative to control
T2 sequence (whole entry): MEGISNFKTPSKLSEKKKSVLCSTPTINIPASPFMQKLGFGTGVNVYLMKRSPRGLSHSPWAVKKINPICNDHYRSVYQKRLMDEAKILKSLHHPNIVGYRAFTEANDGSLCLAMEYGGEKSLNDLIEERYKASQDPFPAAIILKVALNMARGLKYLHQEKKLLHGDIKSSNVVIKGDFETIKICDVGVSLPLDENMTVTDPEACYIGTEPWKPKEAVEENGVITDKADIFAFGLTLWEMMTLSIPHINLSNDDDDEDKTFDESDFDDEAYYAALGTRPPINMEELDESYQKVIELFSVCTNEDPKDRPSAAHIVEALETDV

CYP3A4 = CYP3A4 (Homo sapiens, UniProt P08684); assay: Inhibition of human recombinant CYP3A4 at 10 uM by fluorimetry relative to control; assay type: ADME
CYP3A4, sequence (P08684 whole entry): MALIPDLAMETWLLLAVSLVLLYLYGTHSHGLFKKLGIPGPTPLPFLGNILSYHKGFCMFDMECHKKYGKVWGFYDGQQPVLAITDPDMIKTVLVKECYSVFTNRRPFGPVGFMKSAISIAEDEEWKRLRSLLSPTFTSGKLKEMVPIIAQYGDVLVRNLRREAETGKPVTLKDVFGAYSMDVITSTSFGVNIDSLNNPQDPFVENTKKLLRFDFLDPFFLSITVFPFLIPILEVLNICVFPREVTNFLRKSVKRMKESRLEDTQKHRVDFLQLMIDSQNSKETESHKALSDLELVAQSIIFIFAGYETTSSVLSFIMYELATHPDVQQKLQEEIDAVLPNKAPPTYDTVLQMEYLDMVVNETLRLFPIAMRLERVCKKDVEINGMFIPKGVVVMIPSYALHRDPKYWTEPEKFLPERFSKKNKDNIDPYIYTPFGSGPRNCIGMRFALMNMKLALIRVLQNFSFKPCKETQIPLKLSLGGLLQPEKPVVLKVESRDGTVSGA

CYP2D6 = CYP2D6 (Homo sapiens, UniProt P10635); assay: Inhibition of human CYP2D6 at 10 uM relative to control; assay type: ADME
CYP2D6, sequence (P10635 whole entry): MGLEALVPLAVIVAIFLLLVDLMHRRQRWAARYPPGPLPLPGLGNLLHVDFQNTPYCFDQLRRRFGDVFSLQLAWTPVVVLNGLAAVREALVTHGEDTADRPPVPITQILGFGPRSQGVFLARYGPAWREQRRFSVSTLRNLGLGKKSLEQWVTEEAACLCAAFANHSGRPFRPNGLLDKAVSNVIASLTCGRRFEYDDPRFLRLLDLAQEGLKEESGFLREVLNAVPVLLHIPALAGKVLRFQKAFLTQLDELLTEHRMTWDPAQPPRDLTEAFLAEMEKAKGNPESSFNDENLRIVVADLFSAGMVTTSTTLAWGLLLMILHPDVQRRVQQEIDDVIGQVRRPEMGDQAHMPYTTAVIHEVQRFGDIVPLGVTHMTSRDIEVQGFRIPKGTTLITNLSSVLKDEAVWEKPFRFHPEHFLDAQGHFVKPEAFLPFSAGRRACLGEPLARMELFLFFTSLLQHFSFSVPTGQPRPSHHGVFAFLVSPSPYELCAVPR

CYP1A2 = CYP1A2 (Homo sapiens, UniProt P05177); assay: Inhibition of human recombinant CYP1A2 using CEC as substrate at 10 uM after 30 mins by fluorimetry relative to control; assay type: ADME; details: recombinant CYP1A2, probe CEC
CYP1A2, sequence (P05177 whole entry, the tested form may be a part): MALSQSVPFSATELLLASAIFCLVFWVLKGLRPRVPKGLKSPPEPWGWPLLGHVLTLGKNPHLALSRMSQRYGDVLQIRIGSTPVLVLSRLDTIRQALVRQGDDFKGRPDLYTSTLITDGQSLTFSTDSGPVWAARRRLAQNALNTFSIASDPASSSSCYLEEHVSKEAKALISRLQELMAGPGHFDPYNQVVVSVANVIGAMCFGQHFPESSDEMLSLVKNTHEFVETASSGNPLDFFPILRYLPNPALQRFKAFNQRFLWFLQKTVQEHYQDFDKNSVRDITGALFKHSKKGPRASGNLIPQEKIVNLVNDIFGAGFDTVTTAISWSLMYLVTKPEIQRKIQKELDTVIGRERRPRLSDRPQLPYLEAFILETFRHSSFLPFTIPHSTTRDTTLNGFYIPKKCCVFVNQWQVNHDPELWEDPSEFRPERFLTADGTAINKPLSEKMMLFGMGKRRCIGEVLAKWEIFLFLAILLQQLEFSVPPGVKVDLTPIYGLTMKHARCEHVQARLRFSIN

[5] = target: Mitogen-activated protein kinase kinase kinase kinase 4 (Homo sapiens, UniProt O95819); assay: Inhibition of human N-terminal GST-tagged HGK catalytic domain (1 to 328 residues) expressed in baculovirus expression system using fluorescence labelled moesin-derived peptide substrate by electrophoretic mobility shift assay
Mitogen-activated protein kinase kinase kinase kinase 4, sequence (O95819 whole entry, the tested form may be a part): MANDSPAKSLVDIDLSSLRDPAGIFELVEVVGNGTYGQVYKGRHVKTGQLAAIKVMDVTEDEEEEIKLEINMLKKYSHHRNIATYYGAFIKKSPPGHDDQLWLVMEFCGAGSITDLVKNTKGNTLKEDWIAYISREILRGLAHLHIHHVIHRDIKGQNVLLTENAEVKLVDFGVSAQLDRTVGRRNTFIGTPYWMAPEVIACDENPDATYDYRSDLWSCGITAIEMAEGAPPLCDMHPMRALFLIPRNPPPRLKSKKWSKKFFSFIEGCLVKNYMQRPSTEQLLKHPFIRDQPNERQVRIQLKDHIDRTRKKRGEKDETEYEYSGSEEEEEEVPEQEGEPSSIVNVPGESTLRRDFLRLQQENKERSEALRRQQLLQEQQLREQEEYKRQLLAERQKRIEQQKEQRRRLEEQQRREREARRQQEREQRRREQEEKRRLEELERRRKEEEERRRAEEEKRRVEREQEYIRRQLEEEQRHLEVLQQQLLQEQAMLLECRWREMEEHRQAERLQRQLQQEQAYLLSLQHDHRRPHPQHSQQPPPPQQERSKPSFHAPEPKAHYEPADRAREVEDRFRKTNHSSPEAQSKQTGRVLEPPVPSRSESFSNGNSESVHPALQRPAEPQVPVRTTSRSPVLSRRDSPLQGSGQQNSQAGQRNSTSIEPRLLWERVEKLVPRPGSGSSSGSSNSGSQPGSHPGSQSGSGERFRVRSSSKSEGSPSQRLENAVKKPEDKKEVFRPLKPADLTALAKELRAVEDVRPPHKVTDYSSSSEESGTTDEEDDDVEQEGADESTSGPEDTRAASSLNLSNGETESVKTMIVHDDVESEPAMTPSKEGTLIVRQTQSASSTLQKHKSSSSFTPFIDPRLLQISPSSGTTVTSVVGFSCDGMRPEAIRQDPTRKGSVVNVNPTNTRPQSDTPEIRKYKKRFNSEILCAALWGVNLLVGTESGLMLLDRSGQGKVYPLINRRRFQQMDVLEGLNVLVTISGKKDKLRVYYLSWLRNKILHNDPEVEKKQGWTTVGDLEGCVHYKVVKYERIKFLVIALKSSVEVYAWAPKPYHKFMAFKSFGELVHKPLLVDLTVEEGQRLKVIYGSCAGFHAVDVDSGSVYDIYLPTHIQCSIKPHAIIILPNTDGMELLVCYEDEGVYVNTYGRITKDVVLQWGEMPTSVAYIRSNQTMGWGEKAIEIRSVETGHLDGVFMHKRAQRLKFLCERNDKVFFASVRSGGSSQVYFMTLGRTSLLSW

CYP2C9 = CYP2C9 (Homo sapiens, UniProt P11712); assay: Inhibition of human CYP2C9 at 10 uM relative to control; assay type: ADME
CYP2C9, sequence (P11712 whole entry): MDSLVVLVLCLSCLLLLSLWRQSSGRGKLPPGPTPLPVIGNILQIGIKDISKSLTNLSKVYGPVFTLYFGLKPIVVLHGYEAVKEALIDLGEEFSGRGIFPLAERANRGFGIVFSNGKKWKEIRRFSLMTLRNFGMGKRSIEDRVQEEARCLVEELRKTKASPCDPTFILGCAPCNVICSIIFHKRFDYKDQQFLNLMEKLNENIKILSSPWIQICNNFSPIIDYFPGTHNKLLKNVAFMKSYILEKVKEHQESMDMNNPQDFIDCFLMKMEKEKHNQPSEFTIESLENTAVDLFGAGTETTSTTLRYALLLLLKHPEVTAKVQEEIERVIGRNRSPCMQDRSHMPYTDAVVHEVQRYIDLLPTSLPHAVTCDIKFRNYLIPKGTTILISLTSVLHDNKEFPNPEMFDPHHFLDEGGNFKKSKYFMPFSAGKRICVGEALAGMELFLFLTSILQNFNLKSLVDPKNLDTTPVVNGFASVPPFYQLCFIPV

[6] = Aqueous solubility in pH 7.4 PBS buffer at 200 uM after 24 hrs by UV-visible HPLC based shake flask method; assay type: physicochemical; details: PBS buffer pH 7.4, pH 7.4
[7] = Permeability from apical to basolateral side in human Caco2 cells at 10 uM after 60 mins by HPLC-MS/MS analysis; assay type: ADME, cell-based; details: Caco-2, read-out: permeability
MV4-11 [8] = assay: Induction of apoptosis in human MV4-11 cells at 0.17 to 17 uM after 48 hrs by annexin V/propidium iodide staining based flow cytometry; assay type: functional, cell-based
[9] = target: High affinity nerve growth factor receptor (Homo sapiens, UniProt P04629); assay: Inhibition of human N-terminal GST-tagged TRKA cytoplasmic domain (436 to 790 residues) expressed in baculovirus expression system using fluorescence labelled CSKtide as substrate by electrophoretic mobility shift assay
High affinity nerve growth factor receptor, sequence (P04629 whole entry, the tested form may be a part): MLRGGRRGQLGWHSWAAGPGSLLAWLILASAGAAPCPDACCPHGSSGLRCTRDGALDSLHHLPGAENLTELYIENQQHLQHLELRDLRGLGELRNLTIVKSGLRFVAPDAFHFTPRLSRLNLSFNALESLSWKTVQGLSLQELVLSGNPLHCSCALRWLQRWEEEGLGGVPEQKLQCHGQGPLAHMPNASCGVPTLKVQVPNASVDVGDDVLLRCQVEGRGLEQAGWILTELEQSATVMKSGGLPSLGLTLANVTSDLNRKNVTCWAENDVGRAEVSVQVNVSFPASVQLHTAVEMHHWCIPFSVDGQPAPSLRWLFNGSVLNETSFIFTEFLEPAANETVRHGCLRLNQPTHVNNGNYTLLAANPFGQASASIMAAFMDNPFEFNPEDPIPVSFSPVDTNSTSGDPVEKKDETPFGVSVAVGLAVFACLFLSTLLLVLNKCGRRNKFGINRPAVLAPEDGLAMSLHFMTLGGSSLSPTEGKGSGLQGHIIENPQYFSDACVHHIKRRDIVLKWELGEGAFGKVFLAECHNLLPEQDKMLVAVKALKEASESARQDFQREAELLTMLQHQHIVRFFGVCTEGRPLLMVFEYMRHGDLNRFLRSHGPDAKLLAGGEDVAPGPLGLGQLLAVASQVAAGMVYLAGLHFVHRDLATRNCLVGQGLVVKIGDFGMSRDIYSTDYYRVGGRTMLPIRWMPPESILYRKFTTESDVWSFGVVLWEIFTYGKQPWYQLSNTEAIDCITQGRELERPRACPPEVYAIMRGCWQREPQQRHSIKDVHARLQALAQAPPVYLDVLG

[10] = Metabolic stability in human liver microsomes assessed as parent compound remaining at 1 uM after 1 hr; assay type: ADME; details: read-out: Stability
Homo sapiens [11] = species: Homo sapiens; assay: Selectivity ratio of IC50 for human N-terminal GST-tagged HGK catalytic domain (1 to 328 residues) expressed in baculovirus expression system to IC50 for human N-terminal GST-tagged FLT3 cytoplasmic domain (564 to 993 residues) expressed in baculovirus expression system
Homo sapiens [12] = species: Homo sapiens; assay: Selectivity ratio of IC50 for human N-terminal GST-tagged TRKA cytoplasmic domain (436 to 790 residues) expressed in baculovirus expression system to IC50 for human N-terminal GST-tagged FLT3 cytoplasmic domain (564 to 993 residues) expressed in baculovirus expression system
[13] = target: Receptor-type tyrosine-protein kinase FLT3 (Homo sapiens) (UniProt P36888); assay: Inhibition of FLT3 autophosphorylation at Tyr-596 in human MV4-11 cells after 1.5 hrs by Western blot analysis; assay type: cell-based
CYP2C19 = CYP2C19 (Homo sapiens, UniProt P33261); assay: Inhibition of human CYP2C19 at 10 uM relative to control; assay type: ADME
CYP2C19, sequence (P33261 whole entry): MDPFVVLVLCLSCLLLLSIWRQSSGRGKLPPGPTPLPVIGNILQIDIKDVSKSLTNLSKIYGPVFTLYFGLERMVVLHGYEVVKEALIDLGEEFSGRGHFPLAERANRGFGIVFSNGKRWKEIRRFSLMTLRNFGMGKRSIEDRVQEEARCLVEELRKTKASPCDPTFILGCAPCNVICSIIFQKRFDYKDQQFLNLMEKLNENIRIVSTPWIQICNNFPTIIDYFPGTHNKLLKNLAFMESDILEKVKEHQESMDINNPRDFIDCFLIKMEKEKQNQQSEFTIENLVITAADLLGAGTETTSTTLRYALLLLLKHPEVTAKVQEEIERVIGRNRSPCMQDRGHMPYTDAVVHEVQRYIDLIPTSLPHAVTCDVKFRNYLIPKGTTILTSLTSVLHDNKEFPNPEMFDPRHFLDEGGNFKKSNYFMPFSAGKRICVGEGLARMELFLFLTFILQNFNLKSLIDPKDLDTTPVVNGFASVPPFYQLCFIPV

Structure (SMILES)	IC50 [1]	inhibition [2]	IC50 (MV4-11 [3])	inhibition [4]	inhibition at 10 µM (CYP3A4)	inhibition at 10 µM (CYP2D6)	inhibition at 0.5 h, 10 µM (CYP1A2)	IC50 [5]	inhibition at 10 µM (CYP2C9)	solubility thermodynamic at 24 h, 200 µM [6]	Papp A→B at 1 h, 10 µM [7]	Activity (MV4-11 [8])	IC50 [9]	remaining at 1 h, 1 µM [10]	Ratio IC50 (Homo sapiens [11])	Ratio IC50 (Homo sapiens [12])	inhibition [13]	inhibition at 10 µM (CYP2C19)
O=C(Nc1ccccc1)c1n[nH]c2ccccc12	> 10000 nM	21.2%	7700 nM	4.5%														
O=C(Nc1ccc(CN2CCN(c3ccccc3)CC2)cc1)c1n[nH]c2ccccc12	> 10000 nM	0.8%	164 nM	-3.1%	48%	62%	36%	410 nM	36%	3 µM (≈ 1.23 µg/mL)	4 ×10⁻⁶ cm/s	Active	137 nM	50%	45	15	Dose-dependent effect	57%
O=C(Nc1ccc(C(=O)N2CCN(c3ccccc3)CC2)cc1)c1n[nH]c2ccccc12		2.7%		-1.9%														

Source: ChEMBL document CHEMBL3792292, “Development of a potent and selective FLT3 kinase inhibitor by systematic expansion of a non-selective fragment-screening hit” (Bioorg Med Chem Lett, 2016)
